Laboratory results from PubChem BioAssay AID623938 (Vanderbilt Specialized Chemistry Center, 2012).
Activity calls are given as the source filed them. No rule for the calls is given here.

What follows are molecules tested against Muscarinic acetylcholine receptor M4 (Homo sapiens) (UniProt P08173) (assay: human M4 receptor positive allosteric modulators, SAR follow-up, cell-based, calcium mobilization (AID 623938)). Details: hM4 cells, PAM with EC20 ACh.
Chain of Muscarinic acetylcholine receptor M4 (Homo sapiens) (P08173 whole entry, looked up): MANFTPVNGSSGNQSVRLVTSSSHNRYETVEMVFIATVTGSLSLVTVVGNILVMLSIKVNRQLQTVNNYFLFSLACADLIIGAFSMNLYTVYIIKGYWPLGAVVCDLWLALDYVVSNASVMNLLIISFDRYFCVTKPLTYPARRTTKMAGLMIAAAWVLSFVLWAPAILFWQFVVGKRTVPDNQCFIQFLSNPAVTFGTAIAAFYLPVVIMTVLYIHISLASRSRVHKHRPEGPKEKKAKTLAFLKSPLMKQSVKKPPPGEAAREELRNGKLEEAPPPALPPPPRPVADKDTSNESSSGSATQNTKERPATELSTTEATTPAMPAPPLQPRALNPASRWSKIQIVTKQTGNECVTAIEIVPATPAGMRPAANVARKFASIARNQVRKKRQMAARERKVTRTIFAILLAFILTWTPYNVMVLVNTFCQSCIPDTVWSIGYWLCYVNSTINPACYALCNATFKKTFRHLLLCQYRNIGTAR
Work on `COc1ccc(C)c2sc(NC(=O)C3CC3)nc12` yielded an EC50 greater than 10 µM.
With `Cc1nc2sc(C(=O)NCc3ccc(C(F)(F)F)cc3)c(N)c2c(C)c1Cl` the EC50 was 1.14 µM.
Work on `Cc1nc2sc(C(=O)NC(C)c3ccncc3)c(N)c2c(C)c1Cl` (centres undefined) yielded an EC50 of 0.6 µM.
Molecule `Cc1nc2sc(C(=O)NCc3cccnc3)c(N)c2c(C)c1Cl` has an EC50 of 0.328 µM.
`Cc1nc2sc(C(=O)NCc3ccccc3Cl)c(N)c2c(C)c1Cl` showed an EC50 of 0.154 µM.
For `Cc1nc2sc(C(=O)NCc3ccccc3)c(N)c2c(C)c1Cl`, the EC50 was 0.133 µM.
In the case of `Cc1nc2sc(C(=O)NCc3ccc(F)c(F)c3)c(N)c2c(C)c1Cl`, the outcome is reported as “active; potentiator”.
`COc1ccc(C)c2sc(NC(=O)NC3CC3)nc12` was tested, and the EC50 was greater than 10 µM.
With `Cc1nc2sc(C(=O)NCc3ccc4c(c3)OCO4)c(N)c2c(C)c1Cl` the EC50 was 0.17 µM.
Molecule `Cc1nc2sc(C(=O)NCCC3CCCN3C)c(N)c2c(C)c1Cl` (centres undefined) has an EC50 of 0.596 µM.
`COc1ccc(C)c2sc(NC(=O)C3CCCOC3)nc12` (centres undefined) was tested, and the EC50 was greater than 10 µM.
With `COc1ccc(NC(=O)c2sc3nc(C)c(Cl)c(C)c3c2N)cc1` the outcome was “active; potentiator”.
`Cc1nc2sc(C(=O)NC3CC3)c(N)c2c(C)c1Cl` gave an EC50 of 0.021 µM.
Work on `COc1ccc(C)c2sc(NC(=O)c3ccco3)nc12` yielded an EC50 of 1.43 µM.
Work on `COc1ccc(C)c2sc(C(=O)NC3CC3)nc12` yielded an EC50 greater than 10 µM.
In the case of `Cc1nc2sc(C(=O)NCCc3cccnc3)c(N)c2c(C)c1Cl`, the outcome is reported as “inactive”.
Molecule `Cc1nc2sc(C(=O)NCc3ccnnc3)c(N)c2c(C)c1Cl` has an EC50 of 0.222 µM.
`Cc1nc2sc(C(=O)NCc3cnccn3)c(N)c2c(C)c1Cl` was tested, and the EC50 was 0.25 µM.
In the case of `Cc1nc2sc(C(=O)NCc3cccc(F)c3F)c(N)c2c(C)c1Cl`, the EC50 is reported as 0.12 µM.
In the case of `CCOc1ccc(NC(=O)c2sc3nc(C)c(Cl)c(C)c3c2N)cc1`, the outcome is reported as “inactive”.
`COc1ccc(C)c2sc(NC(=O)C3CCC3)nc12` showed an EC50 greater than 10 µM.
`Cc1nc2sc(C(=O)NC3CCOCC3)c(N)c2c(C)c1Cl` showed an EC50 of 0.22 µM.
With `Cc1nc2sc(C(=O)NC(C)C)c(N)c2c(C)c1Cl` the EC50 was 0.183 µM.
`Cc1nc2sc(C(=O)NCCc3ccncc3)c(N)c2c(C)c1Cl` was tested, and the EC50 was 0.211 µM.
For `Cc1nc2sc(C(=O)NCc3nccs3)c(N)c2c(C)c1Cl`, the EC50 was 0.174 µM.
With `Cc1nc2sc(C(=O)NCC3CCCCC3)c(N)c2c(C)c1Cl` the EC50 was 1.09 µM.
Molecule `COc1cccc2sc(NC(=O)c3ccncc3)nc12` has an EC50 of 2.29 µM.
`COc1ccc(CNC(=O)c2sc3nc(C)c(Cl)c(C)c3c2N)cc1` gave an EC50 of 0.089 µM.
Molecule `COc1ccc(C)c2sc(NC(=O)c3ccncc3)nc12` has an EC50 of 1.4 µM.
`COc1ccc(C)c2sc(NC(=O)c3cnccn3)nc12` showed an EC50 of 0.745 µM.
`Cc1nc2sc(C(=O)NCc3ccncc3)c(N)c2c(C)c1Cl` showed an EC50 of 0.037 µM.
Work on `COCCCNC(=O)c1sc2nc(C)c(Cl)c(C)c2c1N` yielded an EC50 of 0.425 µM.
Molecule `COc1ccc(C)c2sc(NC(=O)C(C)C)nc12` has an EC50 greater than 10 µM.
`Cc1nc2sc(C(=O)NCCc3ccccn3)c(N)c2c(C)c1Cl` showed an EC50 of 0.686 µM.
`Cc1nc2sc(C(=O)NC(C)(C)C)c(N)c2c(C)c1Cl` showed an EC50 of 0.372 µM.
Molecule `COc1ccc(C)c2sc(NC(=O)C3CC3C)nc12` (centres undefined) has an EC50 greater than 10 µM.
For `Cc1cc(CNC(=O)c2sc3nc(C)c(Cl)c(C)c3c2N)ccn1`, the EC50 was 0.057 µM.
In the case of `Cc1nc2sc(C(=O)NCc3ccc(Cl)cc3)c(N)c2c(C)c1Cl`, the outcome is reported as “active; potentiator”.
With `Cc1nc2sc(C(=O)NC3CCCCC3)c(N)c2c(C)c1Cl` the EC50 was 0.188 µM.
Molecule `Cc1nc2sc(C(=O)NC3CCOC3)c(N)c2c(C)c1Cl` (centres undefined) has an EC50 of 0.029 µM.
In the case of `Cc1nc2sc(C(=O)NCc3ncccn3)c(N)c2c(C)c1Cl`, the EC50 is reported as 1.07 µM.
`Cc1nc2sc(C(=O)NC(C)c3ccccn3)c(N)c2c(C)c1Cl` (centres undefined) was tested, and the EC50 was 1.41 µM.
With `Cc1nc2sc(C(=O)NCc3ccncn3)c(N)c2c(C)c1Cl` the EC50 was 0.173 µM.
`COc1ccc(C)c2sc(NC(=O)C3CCCC3)nc12` gave an EC50 greater than 10 µM.
In the case of `Cc1nc2sc(C(=O)NC3COC3)c(N)c2c(C)c1Cl`, the EC50 is reported as 0.906 µM.
`COc1ccc(C)c2sc(NC(=O)NC3CCCC3)nc12` gave an EC50 of 3.58 µM.
`Cc1nc2sc(C(=O)NC(C)c3cccnc3)c(N)c2c(C)c1Cl` (centres undefined) showed an EC50 of 0.601 µM.
For `COc1ccc(C)c2sc(NC(=O)C3=COCCO3)nc12`, the EC50 was 1.9 µM.
In the case of `Cc1nc2sc(C(=O)Nc3ccccc3N(C)C)c(N)c2c(C)c1Cl`, the outcome is reported as “inactive”.
`Cc1ccc(CNC(=O)c2sc3nc(C)c(Cl)c(C)c3c2N)cc1` was tested, and the EC50 was 0.132 µM.
For `Cc1nc2sc(C(=O)NCc3ccccn3)c(N)c2c(C)c1Cl`, the EC50 was 0.293 µM.
`CCCC(=O)Nc1nc2c(OC)ccc(C)c2s1` was tested, and the EC50 was greater than 10 µM.
`COc1ccc(C)c2sc(NC(=O)c3cccnc3)nc12` was tested, and the EC50 was 2.5 µM.
For `COc1ccc(C)c2sc(NC(=O)C3CCCCC3)nc12`, the EC50 was greater than 10 µM.
`COCC(=O)Nc1nc2c(OC)ccc(C)c2s1` was tested, and the EC50 was greater than 10 µM.
Work on `COc1ccc(C)c2sc(NC(=O)N3CCCC3)nc12` yielded an EC50 greater than 10 µM.

Same assay, conditions: hM4 cells, PAM with EC20 ACh, stronger effect = higher value
With `O=C(Nc1nc2ccccc2s1)C1CCCCO1` (centres undefined) the “% ACh max” value was “inactive”.
For `O=C(Nc1nc2cccnc2s1)c1cccnn1`, the “% ACh max” value was “inactive”.
For `COc1ccc(C)c2sc(C(=O)NC3CCCCC3)nc12`, the “% ACh max” value was “inactive”.
For `COc1ccc(C)c2sc(NC(=O)C3=C(C)OCCO3)nc12`, the “% ACh max” value was “inactive”.
In the case of `COc1ccc(C)c2sc(NS(=O)(=O)c3cccc(Cl)c3)nc12`, the “% ACh max” value is reported as “inactive”.
With `COc1ccc(C)c2sc(NC(=O)NCc3ccncc3)nc12` the “% ACh max” value was “inactive”.
`COc1ccc2nc(NC(=O)c3ccncc3)sc2n1` was tested, and the “% ACh max” value was “inactive”.
`COc1ccc(C)c2sc(NC(=O)NC3CCC3)nc12` was tested, and the “% ACh max” value was “inactive”.
`COc1ccc(C)c2sc(NS(=O)(=O)c3cc(C)ccn3)nc12` was tested, and the “% ACh max” value was “inactive”.
For `COc1ccc(C)c2sc(C(=O)NC3CCCC3)nc12`, the “% ACh max” value was “inactive”.
`Clc1cccc(Nc2n[nH]c3ccccc23)c1` was tested, and the “% ACh max” value was “inactive”.
`COc1ccc(C)c2sc(C(=O)NC3COC3)nc12` was tested, and the % ACh max was 36.4%.
`O=C(Nc1nc2cccnc2s1)C1CCCC1` was tested, and the “% ACh max” value was “inactive”.
`COc1ccc(C)c2sc(NS(=O)(=O)c3ccc(F)cc3F)nc12` was tested, and the “% ACh max” value was “inactive”.
For `COc1ccc(C)c2sc(NC(=O)c3cc(F)cc(F)c3)nc12`, the “% ACh max” value was “inactive”.
With `COc1ccc(C)c2sc(C(=O)NCc3ccncc3)nc12` the “% ACh max” value was “inactive”.
With `COc1ccc(C)c2sc(NS(=O)(=O)c3ccc4occc4c3)nc12` the “% ACh max” value was “inactive”.
For `COc1ccc(C)c2sc(C(=O)Nc3ccc(C)nc3)nc12`, the “% ACh max” value was “inactive”.
For `O=C(Nc1nc2cccnc2s1)c1cnccn1`, the “% ACh max” value was “inactive”.
`COc1ccc(C)c2sc(NCC3CC3)nc12` was tested, and the “% ACh max” value was “inactive”.
For `COc1ccc(C)c2sc(NC(=O)Nc3ccncc3)nc12`, the “% ACh max” value was “inactive”.
In the case of `COc1ccc(C)c2sc(C(=O)Nc3ccncc3)nc12`, the “% ACh max” value is reported as “inactive”.
With `COc1ccc(C)c2sc(NC(C)=O)nc12` the “% ACh max” value was “inactive”.
For `COc1ccc(C)c2sc(NC(=O)N3CCCCC3)nc12`, the “% ACh max” value was “inactive”.
For `COc1ccc(C)c2sc(NC(=O)c3ccc(C)cc3)nc12`, the “% ACh max” value was “inactive”.
With `COc1ccc(C)c2sc(NC(=O)c3ccc(F)c(F)c3)nc12` the “% ACh max” value was “inactive”.
For `CCCCC1CC1C(=O)Nc1nc2c(OC)ccc(C)c2s1` (centres undefined), the “% ACh max” value was “inactive”.
`O=C(Nc1nc2cccnc2s1)C1CCC1` was tested, and the “% ACh max” value was “inactive”.
`COc1ccc(C)c2sc(NC(=O)C3CCCCO3)nc12` (centres undefined) showed a % ACh max of 64.1%.
`COc1ccc(C)c2sc(NC(=O)c3c(F)cccc3F)nc12` was tested, and the “% ACh max” value was “inactive”.
For `COc1ccc(C)c2sc(NC(=O)c3ccc(F)cc3F)nc12`, the “% ACh max” value was “inactive”.
`COc1ccc(C)c2sc(NC(=O)c3ccc(F)cc3)nc12` was tested, and the “% ACh max” value was “inactive”.
`COc1ccc(C)c2sc(NS(=O)(=O)c3cnn(C)c3)nc12` was tested, and the “% ACh max” value was “inactive”.
For `COc1ccc(C)c2sc(NC(=O)c3ccccn3)nc12`, the “% ACh max” value was “inactive”.
`COc1ccc(C)c2sc(NS(=O)(=O)c3cccc(C)c3)nc12` was tested, and the “% ACh max” value was “inactive”.
For `COc1ccc(C)c2sc(NC(=O)CCc3ccccc3)nc12`, the “% ACh max” value was “inactive”.
In the case of `COc1ccc(C)c2sc(NC(=O)CC(C)(C)C)nc12`, the “% ACh max” value is reported as “inactive”.
With `COc1ccc(C)c2sc(NS(=O)(=O)c3ccc(C(F)(F)F)cc3)nc12` the “% ACh max” value was “inactive”.
